In patent publication US4136163A, “P-Menthane carboxamides having a physiological cooling effect” (Wilkinson Sword Limited, priority 1971, dated 1979):

Columns and labels:
[1] = tested on: cold receptors; assay: Threshold test: minimum quantity of compound on filter paper square on tongue giving a noticeable cooling effect, selected panel of 6 people; format: in vivo, human; conditions: for Threshold (average minimum quantity to produce a noticeable cooling effect): panel of 6 people, cooling reported 50% of the time
Source text: For example, a controlling factor in the onset of cooling effect, its intensity and longevity will be the rate of penetration of the compounds through the epidermis and this will vary in different locations on the human body.
It will also benoted that the described test procedure is done on a statistical basis. This is necessary since sensitivity to these compounds will vary not only from compound to compound and from one part of the body to another, but also from one individual to another. Tests of this nature are commonly used in the testing of the organoleptic properties, e.g. taste, smell etc. of organic and inorganic compounds, see Kirk-Othmer: Encyclopedia of Chemical Technology, 2nd. Ed.
The following test procedure is aimed at determining the minimum quantity of the test compound required to produce a noticeable cooling effect on a person of average sensitivity, this minimum quantity being termed the threshold for that particular compound. The tests are carried out on a selected panel of 6 people of median sensitivity to 1-menthol.
To select a test panel of average sensitivity the following procedure is used. Known quantities of 1-menthol in solution in petroleum ether (bp.40-60) are placed on 5 mm. squares of filter paper, whereafter the solvent is allowed to evaporate. A panel of observers is enrolled and asked to place one impregnated square at a time on the tongue and to report on the presence or absence of a cooling effect. […] Conveniently, one starts with squares containing 2.0 μg. 1-menthol, the amount on each successive square being half that of the preceding square, i.e. the second test square will contain 1.0 μg, the third 0.5 μg and so on. Each quantity is tested on the tongue at least 10 times. In this way, the thresholds to cold receptor stimulus by 1-menthol are determined for each individual of the panel, the threshold for each individual being that amount of 1-menthol for which, in a series of not less than 10 test applications, a cooling effect is reported 50% of the time.
To test the activity of compounds according to this invention, the above procedure is repeated using only the 6 selected panel members of average sensitivity to 1-menthol. The individual thresholds for each test compound on each of the 6 selected panel members are determined and averaged. Those compounds whose average threshold on the select test panel is 100 μg or less are regarded as having cooling activity in accordance with this invention.

[2] = tested on: cold receptors; assay: Cooling effect of consumer product applied to skin (face, scalp, lips, forehead); format: in vivo, human
Experimental: Into two separate samples of the base lotion were added 2.0% by weight based on the total composition of N-ethyl-p-menthane-3-carboxamide and N,N-dimethyl-p-menthane-3-carboxamide, each into a different one of the two samples.
To the recipe was added 3.0%, based on the total composition of N-p-menth-3-oylglycine methyl ester. […]
Sodium lauryl ether sulphate, 10 g., was dispersed in 90 g. water in a high speed mill. To the dispersion was added 3.3% by weight of N-(2-hydroxy-n-propyl)-p-menthane-3-carboxamide. […]
The sodium stearate was dissolved by stirring in a warm mixture of the ethanol propylene glycol and water. To the solution was added the perfume and 3.0% of N-(2-hydroxy-n-propyl)-p-menthane-3-carboxamide and the mixture then allowed to solidify into a waxy cake. […]
This Example illustrates now the physiological cooling effect of the compounds of this invention varies according to the locality of application.
In the course of grinding there was added 3.0% of N-n-propyl-p-menthane-3-carboxamide. […]
To this liquid was added 1.0% of N-ethyl-p-menthane-3-carboxamide. A paper tissue was then soaked in the liquid.

Structure (SMILES) | Threshold (average minimum quantity to produce a noticeable cooling effect) [1] [µg] | further results
CC1CCC(C(C)C)C(C(=O)NO)C1 (stereo not drawn) [H, --OH] | 11 | 
CC1CCC(C(C)C)C(C(=O)Nc2ccccc2O)C1 (stereo not drawn) [H, --C6 H4 OH(o)] | 0.5 | 
CCC(C)NC(=O)C1CC(C)CCC1C(C)C (stereo not drawn) [H, --C4 H9 (sec)] | 0.7 | 
CCOC(=O)CC(C)NC(=O)C1CC(C)CCC1C(C)C (stereo not drawn) [H, --CH(CH3)CH2 COOC2 H5] | 0.8 | 
CC1CCC(C(C)C)C(O)C1 (stereo not drawn) [1-menthol, reference compound] |  | average threshold to 1-menthol of selected panel ([1]; panel selection criterion, six members): approximately 0.25 μg
CCOC(=O)CNC(=O)C1CC(C)CCC1C(C)C (stereo not drawn) [H, --CH2 COOC2 H5] | 0.2 | 
Cc1ccc(NC(=O)C2CC(C)CCC2C(C)C)cc1 (stereo not drawn) [H, --C6 H4 Me(p)] | 0.3 | 
CC1CCC(C(C)C)C(C(=O)Nc2ccc([N+](=O)[O-])cc2)C1 (stereo not drawn) [H, --C6 H4 NO2 (p)] | 0.3 | 
CC1CCC(C(C)C)C(C(=O)NCC#CCO)C1 (stereo not drawn) [H, --CH2 C≡CCH2 OH] | 17 | 
Cc1ccc(NC(=O)C2CC(C)CCC2C(C)C)cc1O (stereo not drawn) [H, --C6 H3 Me(p)OH(m)] | 0.1 | 
CCOC(=O)C(C)NC(=O)C1CC(C)CCC1C(C)C (stereo not drawn) [H, --CH(CH3)COOC2 H5] | 0.4 | 
CC1CCC(C(C)C)C(C(=O)N2CCNCC2)C1 (stereo not drawn) [--CH2 CH2 NHCH2 CH2 --] | 15 | 
COc1ccc(NC(=O)C2CC(C)CCC2C(C)C)cc1 (stereo not drawn) [H, --C6 H4 OMe(p)] | 0.1 | 
CC1CCC(C(C)C)C(C(=O)NCCN)C1 (stereo not drawn) [H, --CH2 CH2 NH2] | 20 | 
CC1CCC(C(C)C)C(C(=O)NC2CC2)C1 (stereo not drawn) [H, --C3 H5 (cyclo)] | 0.5 | 
COC(=O)CNC(=O)C1CC(C)CCC1C(C)C (stereo not drawn) [H, --CH2 COOCH3, N-(p-menth-3-oyl)glycine methyl ester] | 0.6 | cooling effect ([2]; Example 3, toilet water, 3.0%, skin): a cooling effect was clearly noticeable on the skin well after the termination of any cooling effect attributable to the evaporation of the alcoholic carrier; cooling effect ([2]; Example 8, hair tonic, 2.0%, scalp): a cooling effect is noticed; cooling effect ([2]; Example 21, antiseptic ointment, 0.5%, skin): marked cooling effect
CCCCCCCCCCNC(=O)C1CC(C)CCC1C(C)C (stereo not drawn) [H, --C10 H21 (n)] | 10 | 
CCN(CC)C(=O)C1CC(C)CCC1C(C)C (stereo not drawn) [--C2 H5, --C2 H5] | 3 | 
CC1CCC(C(C)C)C(C(=O)NCc2ccccc2)C1 (stereo not drawn) [H, --CH2 Ph] | 10 | 
CC1CCC(C(C)C)C(C(=O)NC(C)C)C1 (stereo not drawn) [H, --C3 H7 (iso)] | 0.5 | 
CC1CCC(C(C)C)C(C(=O)NC2CCCCC2)C1 (stereo not drawn) [H, --C6 H11 (cyclo)] | 1 | 
CC1CCC(C(C)C)C(C(=O)NC2CCCCCC2)C1 (stereo not drawn) [H, --C7 H13 (cyclo)] | 3 | 
CC1CCC(C(C)C)C(C(=O)N(C)CCO)C1 (stereo not drawn) [--CH3, --CH2 CH2 OH] | 5 | 
CC1CCC(C(C)C)C(C(=O)NCO)C1 (stereo not drawn) [H, --CH2 OH] | 12 | 

Structure (SMILES) | Threshold (average minimum quantity to produce a noticeable cooling effect) [1] [µg] | further results
CCOC(=O)CCNC(=O)C1CC(C)CCC1C(C)C (stereo not drawn) [H, --CH2 CH2 COOC2 H5] | 1.5 | 
CC1CCC(C(C)C)C(C(=O)NCCCO)C1 (stereo not drawn) [H, --(CH2)3 OH, N-3-hydroxypropyl-p-menthane carboxamide] | 3 | cooling effect ([2]; Example 24 repeated, cleansing tissue, 2.0%, skin, in place of the N-ethyl compound): equally effective results
CNC(=O)C1CC(C)CCC1C(C)C (stereo not drawn) [H, --CH3, N-methyl-p-menthane-3-carboxamide] | 1.1 | cooling effect ([2]; Example 4, deodorant composition, 1.3%, skin): definte cooling sensation on the skin
CC1CCC(C(C)C)C(C(=O)NCCCCCCO)C1 (stereo not drawn) [H, --(CH2)6 OH] | 1.0 | 
CC1CCC(C(C)C)C(C(=O)NCC2CCCCCC2)C1 (stereo not drawn) [H, --CH2 (C7 H13 (cyclo)] | 20 | 
CC1CCC(C(C)C)C(C(=O)Nc2cccnc2)C1 (stereo not drawn) [H, --3-Pyridyl] | 0.5 | 
CC1CCC(C(C)C)N(C(=O)C2CC(C)CCC2C(C)C)CC1 (stereo not drawn) [--CH(iso-C3 H7)CH2 CH2 CH(CH3)CH2 CH2 --] | 50 | 
CC1CCC(C(C)C)C(C(=O)NCC(=O)O)C1 (stereo not drawn) [H, --CH2 COOH, N-(p-menth-3-oyl) glycine] | 16 | cooling effect ([2]; Example 6, lipstick, 0.6%, lips): a persistent cooling effect is clearly noiticeable
CC(C)CNC(=O)C1CC(C)CCC1C(C)C (stereo not drawn) [H, --C4 H9 (iso)] | 0.9 | 
CC1CCC(C(C)C)C(C(=O)NC(C)(C)C)C1 (stereo not drawn) [H, --C4 H9 (tert.)] | 0.4 | 
CCOC(=O)CN(C)C(=O)C1CC(C)CCC1C(C)C (stereo not drawn) [--CH3, --CH2 CO2 C2 H5] | 0.8 | 
CC(=O)OCCNC(=O)C1CC(C)CCC1C(C)C (stereo not drawn) [H, --CH2 CH2 OCOCH3] | 1.5 | 
CC1CCC(C(C)C)C(C(=O)Nc2ccc(F)cc2)C1 (stereo not drawn) [H, --C6 H4 F(p)] | 0.5 | 
CCN(CC(C)C)C(=O)C1CC(C)CCC1C(C)C (stereo not drawn) [--C2 H5, --C4 H9 (iso)] | 5 | 
CCCCNC(=O)C1CC(C)CCC1C(C)C (stereo not drawn) [H, --C4 H9 (n)] | 1.4 | 
CC1CCC(C(C)C)C(C(=O)N(CCO)C(C)C)C1 (stereo not drawn) [--C3 H7 (iso), --CH2 CH2 OH] | 3 | 
CC1CCC(C(C)C)C(C(=O)N2CCCC2)C1 (stereo not drawn) [--(CH2 H4 --] | 5 | 
CC1CCC(C(C)C)C(C(=O)Nc2ccc(O)cc2)C1 (stereo not drawn) [H, --C6 H4 OH(p)] | 1.4 | 
CC1CCC(C(C)C)C(C(=O)N2C(C)CCC2C)C1 (stereo not drawn) [--CH(CH3)CH2 CH2 CH(CH3)--] | 0.5 | 
CC1CCC(C(C)C)C(C(=O)N2CCCCC2)C1 (stereo not drawn) [--(CH2)5 --] | 6 | 
CCCCCNC(=O)C1CC(C)CCC1C(C)C (stereo not drawn) [H, --C5 H11 (n)] | 3 | 
CC1CCC(C(C)C)C(C(=O)NC2CCCC2)C1 (stereo not drawn) [H, --C5 H9 (cyclo)] | 0.5 | 
Cc1ccc(NC(=O)C2CC(C)CCC2C(C)C)cc1C (stereo not drawn) [H, --C6 H3 Me2 (m,p)] | 0.1 | 
CCC(CO)NC(=O)C1CC(C)CCC1C(C)C (stereo not drawn) [H, --CH(C2 H5)CH2 OH] | 1.0 | 
